# According to patent US11091429B2, “Organic compounds” (Givaudan SA, priority 2012, dated 2021):
# Experiments:
# [1] = Tasting in soy sauce
# Protocol: (§1) The following formulations were prepared and tasted by trained panelists.
# (§2) Salt level pure product between 5-40%
# (§3) Salt level in application 0.3-1.0%
# (§4) Samples were prepared and evaluated by expert tasters. Tasters were asked to describe the samples focusing on authentic taste, mouthfeel, fullness, salty-ness, salivation, umami, sweetness, juiciness, richness, long lastingness and fattiness.
# Test on Kikkoman Soy Sauce Low Salt
# Base is Kikkoman soy sauce
# (§5) Samples were prepared and evaluated by expert tasters. Tasters were asked to describe the samples focusing on authentic taste, mouthfeel, fullness, salivation, salty-ness, umami, sweetness, juiciness, richness, long lastingness and fattiness.
# [2] = Tasting in fish sauce
# Protocol: as §1, §2, §3, §5
# [3] = Tasting in pilaf; settings: cooked rice with 10% of the butter flavoured at 1 ppm
# Protocol: as §1
# [4] = Tasting in low fat mayonnaise
# Protocol: as §1
# Low fat Mayonnaise (27% Fat, 9% carbohydrates (of which 5% sugar), 1.4% salt)
# as §4
# Calve 60% Reduced Fat Mayonnaise
# Base is Calve Mayonnaise 60% reduced fat (market Product)
# as §5
# Low fat Mayonnaise (27% Fat)
# [5] = Tasting in beef bouillon base; settings: 0.5 PPM in beef bouillon base 1.0% salt, 0.5% fat
# Protocol: as §1
# Beef Bouillon base 1.0% salt, 0.5% fat
# [6] = Tasting on fried potato snack product; settings: 35% fat, cheese seasoning
# Protocol: as §1
# A snack product consisting of a fried potato base, containing 35% fat and flavored with cheese seasoning containing salt, MSG, dairy, organic acids, sugars, and a flavour formulation. The following compounds were added to the snack product at the indicated levels and the tasting results are reported: […]
# [7] = Tasting in UHT milk, cream flavoured; settings: 2 ppm, cream flavour 0.03%
# Protocol: The following tests were carried out on dairy products processed by fermentation, pasteurization or UHT. The products contain fat, protein and calcium.
# UHT Milk Cream Flavoured, Non Sweetened and Different Fat Levels
# In a UHT milk containing 0%, 1.5% and 3% fat, flavoured with a proprietary cream flavour closed at 0.03% C18:2 gaba was added at 2 ppm.
# Samples were evaluated by expert tasters.
# Tasters were asked to describe the samples focusing on authentic taste, mouthfeel, fullness, salivation, sweetness, juiciness, richness, long lastingness and fattiness. The results are presented below:—
# [8] = Tasting in UHT sweetened banana flavoured milk; settings: banana flavour 0.04%
# Protocol: UHT Sweetened Banana Flavoured Milk, With Different Fat Levels
# In a UHT milk with 0% and 3% fat sweetened with 4% sucrose by weight, flavoured with proprietary banana flavour dosed at 0.04%. C18:2 gaba was added at 0.25 ppm, 0.5 ppm and 1 ppm.
# (§6) Samples were evaluated by expert tasters. Tasters were asked to describe the samples focusing on authentic taste, mouthfeel, fullness, salivation, sweetness, juiciness, richness, long lastingness and fattiness.
# [9] = Tasting in yoghurt, cream flavoured; settings: 2 ppm, cream flavour 0.03%
# Protocol: Yoghurt Cream Flavoured, Non-Sweetened and Different Fat Levels
# In a Yoghurt containing 0% 1.5% and 3% fat, flavoured with proprietary cream flavour dosed at 0.03%, C18:2-gaba was added at 2 ppm. Samples were evaluated by expert tasters. Tasters were asked to describe the samples focusing on authentic taste, acidity, mouthfeel, fullness, salivation, sweetness, juiciness, richness, long lastingness and fattiness.
# [10] = Test in 3 in 1 coffee; settings: 1 ppm, 3-in-1 coffee beverage, sucrose 13.2%, creamer (2.1% fat)
# Protocol: In a 3 in 1 Coffee beverage from Nestle (market product) sweetened with sucrose 13.2% and containing creamer (2.1% fat) C18:2-gaba was added.
# as §6
# Base is 3-in-1 Coffee beverage (market product) sweetened with sucrose and containing creamer with fat
# [11] = Tasting in mango juice drink, 1% clear mango juice; settings: 8% sucrose, 0.1% citric acid, mango flavour 0.05%
# How it was run: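 Expert tasters described a still beverage of water, 8% sucrose, 0.1% citric acid, 1% clear mango juice and mango flavour at 0.05%. C18:2-gaba and C18:2-Pro were added separately and in combination. Attributes scored included authentic taste, mouthfeel, juiciness, salivation, sweetness, umami and long lastingness.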
# [12] = Test on menthol fondant; settings: 2 ppm; fondant 65%, sugar syrup 34%, menthol flavour 1%
# Protocol: as §4
# Test on Menthol Fondant (1%1
# Base is Fondant 65%, sugar syrup 34% and a proprietary menthol flavour at 1%
# [13] = Tasting in strawberry drink; settings: 2 ppm; 7% sucrose, 0.1% citric acid, strawberry flavour 0.015%
# How it was run: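 Strawberry drink base (water, 7% sucrose, 0.1% citric acid, 0.015% proprietary strawberry flavour) served as matrix for descriptive evaluation. Expert panel rated umami, sweetness, saltiness, salivation, juiciness, richness, fullness, fattiness, mouthfeel, authentic taste and long-lastingness.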
# [14] = Test in pineapple flavoured drink; settings: 1 ppm; water, 8% sugar, 0.1% citric acid, pineapple flavour 0.03%
# Protocol: as §4
# Test in Pineapple Flavoured Drink:
# Base is water, 8% sugar, 0.1% citric acid and proprietary pineapple flavour at 0.03%
# Samples were evaluated by expert tasters. Tasters were asked to describe the samples focusing on authentic taste, mouthfeel, fullness, salty-ness, salivation, umami, sweetness, juiciness, richness, long lastingness and fattiness.
compound,measurement,setting,value
CCCCC/C=C\C/C=C\CCCCCCCC(=O)NCCCC(=O)O [C18:2-gaba],tasting result,[1]; 0.5 ppm in 1% diluted salt reduced kikoman soy sauce (9% salt),"stronger, more umami, long lasting, richer"
same,tasting result,[1]; 0.5 ppm in Kikkoman soy sauce low salt,"much more salty, sweet and long lasting"
same,tasting result,[1]; 0.5 ppm in pure salt reduced kikoman soy sauce (9% salt),"strong in body and mouthfeel, and more salty"
same,tasting result,[2]; 0.5 ppm in 1% diluted fish sauce (0.27% salt),"stronger in umami, longer lasting and richer"
same,tasting result,[2]; 0.5 ppm in pure fish sauce (27% salt),"strong in body and mouthfeel, more salty, richer with more rounded fish notes"
same,tasting result,[3],"more mouthfeel, with a lingering creamy authentic butter taste"
same,tasting result,[4]; 0.5 ppm in Calve Mayonnaise 60% reduced fat,"full, rich, creamy, more egg yolk taste"
same,tasting result,[4]; 0.5 ppm in low fat mayonnaise (27% fat),"creamy, thick mouthfeel with a full fat impression"
same,tasting result,[5],"Strong, Salty, Umami, mouthfeel"
same,tasting result,[6]; 0.5 ppm on fried potato snack,"increased dairy, cheesy"
same,tasting result,[6]; 1 ppm on fried potato snack,"Fatty full, cheesy, cheese crust, long lasting"
same,tasting result,[7]; UHT milk 0% fat,"Very creamy, milky, long lasting"
same,tasting result,[7]; UHT milk 1.5% fat,"very creamy, milky, long lasting, salivating"
same,tasting result,[7]; UHT milk 3.0% fat,"very creamy, milky, long lasting, taste like whipped cream"
same,tasting result,"[8]; 0.25 ppm, UHT milk 0% fat","fuller banana, more authentic, more sweet"
same,tasting result,"[8]; 0.25 ppm, UHT milk 3% fat","more authentic, less estery and more round"
same,tasting result,"[8]; 0.5 ppm, UHT milk 0% fat","fuller banana, authentic, creamy and sweet, more mouthfeel"
same,tasting result,"[8]; 0.5 ppm, UHT milk 3% fat",creamy banana
same,tasting result,"[8]; 1 ppm, UHT milk 0% fat","creamy, creamy banana, sweet aftertaste, more mouthfeel and very longlasting"
same,tasting result,"[8]; 1 ppm, UHT milk 3% fat",creamy long lasting and more authentic and more impact
same,tasting result,[9]; yoghurt 0% fat,"less acidic, slight creamy aftertaste"
same,tasting result,[9]; yoghurt 1.5% fat,"very creamy, thick, nice long lasting, whipped cream note"
same,tasting result,[9]; yoghurt 3% fat,"less acidic, much more creamy, very long lasting creamy aftertaste"
same,tasting result,[10],"very nice mouthfeel effect, creamy as if coffee creamer is added, more sweet"
same,tasting result,[11]; 1 ppm,"fatty skin-like, very juicy, authentic mango, much more mouthfeel, long lasting mango taste, mouthfeel is close to the full juice product"
same,tasting result,[11]; 2 ppm,"fatty skin like, juicy, authentic"
same,tasting result,[12],"increased menthol impact, stronger cooling more sweet, long lasting, fresh"
same,tasting result,[13],"fatty mouthfeel, creamy strawberry, fruity and juicy"
same,tasting result,[14],"very ripe, jammy, long lasting and sweet"
